“Also recorded” adds a separate entry of the source. *1 amine or outer side, *2 acyl side, *3 side chain or, on linkers, in order; H or OH if unused. Where a SMILES comes first, the peptide text is derived from it. Bridges are numbered along the chain shown (N, C = ends). Roman numbers before positions name the chains, in order. [ ]: non-standard residue; d: D form. Actinocin(9to1) = Cc1c2oc3c(C)ccc(C(=O)[*:1])c3nc-2c(C(=O)[*:2])c(N)c1=O; NMeV = CN[C@H](C(=O)O)C(C)C; Sar = CNCC(=O)O
Columns and labels:
SOX18-RBPJ interaction = SOX18-RBPJ interaction (Homo sapiens (Human), UniProt P35713); test: ALPHAScreen SOX18-RBPJ protein-protein interaction; assay type: binding
Sequence of SOX18-RBPJ interaction (P35713 whole entry): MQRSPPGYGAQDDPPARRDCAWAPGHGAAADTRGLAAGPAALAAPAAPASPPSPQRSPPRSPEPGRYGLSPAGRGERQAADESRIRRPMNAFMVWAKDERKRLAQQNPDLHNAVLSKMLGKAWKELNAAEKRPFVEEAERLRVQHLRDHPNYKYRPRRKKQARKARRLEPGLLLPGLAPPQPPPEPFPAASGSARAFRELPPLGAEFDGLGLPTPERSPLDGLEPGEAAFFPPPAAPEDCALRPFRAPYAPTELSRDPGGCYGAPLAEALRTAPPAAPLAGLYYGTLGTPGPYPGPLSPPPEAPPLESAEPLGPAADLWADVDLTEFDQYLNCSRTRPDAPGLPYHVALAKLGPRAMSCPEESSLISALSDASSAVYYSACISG
Excerpt: Proteins were genetically encoded with enhanced GFP (GFP), mCherry and cMyc (myc) tags, and cloned into cell free expression Gateway destination vectors: N-terminal GFP tagged (pCellFree_G03), N-terminal Cherry-cMyc (pCellFree_G07) and C-terminal Cherry-cMyc tagged (pCellFree_G08) (Gagoski et al., 2015). Human RBPJ (BC020780) and MEF2C (BC026341) Open Reading Frames (ORFs) were sourced from the Human ORFeome collection, version 1.1 and 5.1, and the Human Orfeome collaboration OCAA collection (Open Biosystems), as previously described (Sierecki et al., 2013) and cloned at the ARVEC facility, UQ Diamantina Institute. The entry clones pDONOR223 or pENTR201 vectors were exchanged with the ccdB gene in the expression plasmid by LR recombination (Life Technologies, Australia). The full-length human SOX18 gene was synthesized and the transfer to vectors was realized using Gateway PCR cloning. Translation competent Leishmania tarentolae extract (LTE) was prepared as previously described (Kovtun et al., 2011, Mureev et al., 2009). Protein pairs were co-expressed by adding 30 nM of GFP template plasmid and 60 nM of Cherry template plasmid to LTE and incubating for 3 hours at 27° C.
ALPHAScreen was performed as previously described (Sierecki et al., 2014, Sierecki et al., 2013). […] Percentage of interaction was calculated as: (I_cpd/I_DMSO)×100 from 3 independent experiments.
ALPHAScreen was performed as previously described (Sierecki et al., 2014, Sierecki et al., 2013), using the cMyc detection kit and Proxiplate-384 Plus plates (PerkinElmer). The LTE lysate co-expressing the proteins of interest was diluted in buffer A (25 mM HEPES, 50 mM NaCl). For the assay, 12.5 μL (0.4 μg) of Anti-cMyc coated Acceptor Beads in buffer B (25 mM HEPES, 50 mM NaCl, 0.001% NP40, 0.001% casein) were aliquoted into each well. This was followed by the addition of 2 μL of diluted sample, at different concentration, and 2 μL of biotin labeled GFP-Nanotrap in buffer A. The plates were incubated for 45 min at room temperature, then adding 2 μL (0.4 μg) of streptavidin-coated Donor Beads diluted in buffer A, and incubation in the dark for 45 min at room temperature. The ALPHAScreen signal was measured on an Envision Plate Reader (PerkinElmer), using manufacturer's recommended settings (λexc=680/30 nm for 0.18 s, λem=570/100 nm after 37 ms). The resulting bell-shaped curve is an indication of a positive interaction, while a flat line reflects a lack of interaction between the proteins. The measurement of each protein pair was repeated in triplicate.
I is the highest signal level (top of the hook effect curve) and Ineg is the lowest (background) signal level. The signals were normalized to the Iref signal obtained for the strongest interaction. […] Percentage of interaction was calculated as: […]
The ALPHA-Screen Assay was performed as previously described (Sierecki et al. 2014), using the cMyc detection kit and Proxiplate-384 Plus plates (PerkinElmer). A serial dilution of each sample was measured. The LTE lysate co-expressing the proteins of interest was diluted in buffer A (25 mM HEPES, 50 mM NaCl). For the assay, 12.5 μL (0.4 μg) of Anti-cMyc coated Acceptor Beads in buffer B (25 mM HEPES, 50 mM NaCl, 0.001% NP40, casein) were aliquoted into each well. This was followed by the addition of 2 μL of diluted sample and 2 μL of biotin labeled GFP-Nanotrap in buffer A. The plate was incubated for 45 min at RT. Afterward, 2 μL (0.4 μg) of Streptavidin coated Donor Beads diluted in buffer A, were added, followed by incubation in the dark for 45 min at RT. The ALPHA-Screen signal was obtained on an Envision Multilabel Plate Reader (PerkinElmer), using the manufacturer's recommended settings (excitation: 680/30 nm for 0.18 s, emission: 570/100 nm after 37 ms). The resulting bell-shaped curve is an indication of a positive interaction, while a flat line reflects a lack of interaction between the proteins. […]

HEK293 = test: Cytotoxicity assay (Alamar blue), HEK293; assay type: cell-based; details: HEK293, 24 h
Method: Cell toxicity was determined using Alamar blue, as previously described (McMillian et al., 2002). COS-7 cells were seeded as 7000 cells per well in black wall clear bottom 96-well plates in DMEM medium (Life Technologies Australia) with 10% FBS. HepG2 and HEK293 cell lines, from ATCC, were seeded as 5000 cells per well in black wall clear bottom 384-well cell culture plates in DMEM with 1% FBS. Cells were cultured for 24 h at 37° C., 5% CO2. A serial dilution of compounds was added, with a final DMSO concentration adjusted to 0.5% v/v. Cells were incubated for another 24 h. 1 Triton X-100 was used as negative control, and 0.5% DMSO as positive control. 5 μM Alamar blue was added to each well and fluorescence was measured (λexc=560 nm, λem=590 nm) after 2 h incubation at 37° C. Data were analysed using Prism software.

HepG2 = test: Cytotoxicity assay (Alamar blue), HepG2; assay type: cell-based; details: HepG2, 24 h
SOX18[109] HMG fragment = SOX18[109] HMG fragment (Mus musculus (Mouse), UniProt P43680); test: FP DNA-binding competition assay, SOX18[109] HMG fragment; details: for FP bound fraction (%) 50 μM / FP bound fraction (%) 200 μM: SOX18/DNA binding
Sequence of SOX18[109] HMG fragment (P43680 69-177): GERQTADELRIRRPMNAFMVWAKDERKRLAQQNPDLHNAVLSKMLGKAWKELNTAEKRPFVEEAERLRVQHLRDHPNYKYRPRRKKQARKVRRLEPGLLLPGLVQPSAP
Method: Mouse SOX HMG fragments. The HMG domains of mouse SOX2 (Group B), SOX11 (Group C), SOX6 (Group D), SOX9 (Group E), SOX18 (Group F) and SOX15 (Group G) were BP cloned from cDNA templates (IMAGE cDNA clone IDs: Sox18: 3967084; Sox9: 5354229; Sox4: 6822618) into a pDONRTM221 pENTRY vector, sequenced and recombined into a pETG20A or a pHisMBP expression plasmid using Gateway®LR Technology (Ng et al., 2012). Constructs were transformed into Escherichia coli BL21(DE3) cells (Luria-Bertani, 100 μg/ml Ampicillin).
The DNA-binding competition assay was performed in black 384-well plates, with mouse full length SOX18, or SOX-HMG fragments. All experiments were performed using a fluorescently-labelled Prox1-DNA element. Controls consisted of free labelled DNA (low FP milli-Polarization index, mP), labelled DNA in presence of protein (negative control, high mP), and labelled DNA and protein in presence of competing excess of unlabelled DNA (positive control, low mP)
The DNA-binding competition assay was performed in 25 uL, in black 384-well plates, using either 30 mM HEPES (N-2-Hydroxyethylpiperazine-N′-2-Ethanesulfonic Acid) (pH 7.5, with 100 mM KCl, 40 mM NaCl, 10 mM NH4OAc, […], 2 mM MgCl2, 0.5 mM EDTA, 0.01% NP-40) for mouse full length SOX18, or Tris-NaCl (10 mM Tris pH 8.0 and 100 mM NaCl) for SOX-HMG fragments. All experiments were performed using a 40 bp double-stranded Prox1-DNA element with 5′ fluorescein amidite (FAM) label (Sigma Proligo or InVitrogen). Optimum binding levels were obtained at 200 nM of mouse full length SOX18 and 60 nM of SOX-HMG fragment, in presence of 5 nM labelled DNA. Controls consisted of free labelled DNA (low FP milli-Polarization index, mP), labelled DNA in presence of protein (negative control, high mP), and labelled DNA and protein in presence of 400 time competing excess of unlabelled DNA (positive control, low mP). Depending on compound, final DMSO concentrations ranged from 2 to 3.33% v/v. After mixing protein, DNA probe and compound, plates were sealed and briskly agitated in the dark for 5 minutes at room temperature, 10 minutes at 37° C., and 30 minutes at room temperature, before reading fluorescence polarization on a Tecan M1000Pro (λexc=485 nm, λem=525 nm). All experiments were performed in triplicates.
In order to pinpoint the possible binding site of the small molecules, the FP assays were repeated with a shorter, DNA-binding centred protein fragment. The DNA binding domain of SOX TFs consists of the […] amino acid long High Mobility Group (HMG) box. The 109 amino-acid long SOX18 fragment (SOX18[109]) corresponds to residues 69-177 (numbering by mouse SOX18), which includes the HMG box (residues 78-149) and N- and C-terminal flanking sequences of 9 and 28 amino-acids, respectively.

scrambled DNA = test: Direct DNA-binding assay (SPR), scrambled DNA; details: biotinylated double-strand DNA on streptavidin chip
Method: (§1) Compounds were tested at a 1% v/v DMSO in HBS-EP buffer (10 mM HEPES, 150 mM NaCl, 3 mM EDTA, 0.005% v/v polysorbate 20, pH 7.4). The same buffer supplemented with 1% v/v DMSO was used as a mobile phase. DNA minor groove binder DAPI (4′,6-diamidino-2-phenylindole), DNA intercalator and minor groove binder actinomycin D, and DNA intercalator ethidium bromide were used as positive controls. Biotinylated (one tag per probe) double strand DNA probes were prepared using a standard annealing routine (5 min at 100° C., room temperature overnight and stored at −20° C.) of single strand anti-parallel DNA Probes purchased from Geneworks and were immobilized on CM5-SA streptavidin chips as per manufacturer's recommendations. […] All sample and control cycles were performed in triplicate. DMSO calibration was performed as per manufacturer's recommendations. After each injection, an extra flow system wash was performed with 50% v/v DMSO to avoid carryover. Experiments were run on a Biacore T200 (GE Healthcare, USA), with one flow cell kept as a reference.
(§2) From a molecular viewpoint, an inhibitor of SOX18-DNA binding could act either by interacting directly with the DNA, or the protein, or at the interface between protein and DNA. Binding of small molecules directly to the DNA, even though reported for other TFs (Leung et al., 2013), has the potential for unspecific DNA binding, leading to possible genotoxicity, mutagenicity, or carcinogenicity. For this reason, we developed a direct binding assays to determine whether the active compounds interact directly with DNA or protein. A surface plasmon resonance-based method was developed to analyse the binding of small molecules to biotinylated double stranded DNA immobilized on the surface of a streptavidin chip. The method measures the rate of binding (kon), dissociation (koff) and binding constant (KD), and was used to measure the binding to two different DNA sequences: SOX binding site consensus DNA, and scrambled DNA. Intercalating agents ethidium bromide and Actinomycin D, and the minor groove-binding agent 4′,6-diamino-2-phenylindole (DAPI) were used as positive controls for unselective DNA binding.

[1] = system: SOX binding site consensus DNA; test: Direct DNA-binding assay (SPR), consensus DNA; details: biotinylated double-strand DNA on streptavidin chip
Method: as §1, §2

Row | SMILES | SOX18-RBPJ protein-protein binding inhibition at 5 μM (SOX18-RBPJ interaction; 5 μM) | CC50 (HEK293) [µM] | CC50 (HepG2) [µM] | FP bound fraction (%) 50 μM (SOX18[109] HMG fragment) [%] | FP bound fraction (%) 200 μM (SOX18[109] HMG fragment) [%] | binding to scrambled DNA (SPR) (scrambled DNA) | binding to consensus DNA (SPR) [1] | effect on SOX18-RBPJ interaction (PPI) (SOX18-RBPJ interaction; ALPHAScreen) | SOX18-DNA binding inhibition (FP, words) (SOX18[109] HMG fragment; SAR library, SOX18[109])
1 | COc1cccc(C=Cc2ccc3ccccc3c2)c1C(=O)O (mixture of isomers) [Sm19, (E/Z)-2-methoxy-6-(2-(naphthalen-2-yl)vinyl)benzoic acid] | highly active | > 100 | > 100 | 99.2 ± 6.8 | 107.6 ± 4.5 | – | – | – | –
2 | N=C(N)c1ccc(-c2cc3ccc(C(=N)N)cc3[nH]2)cc1 [DAPI, 4′,6-diamidino-2-phenylindole] | – | – | – | – | – | bind to DNA | bind to DNA | – | –
3 | O=C(O)c1c(O)cccc1C=Cc1ccc2ccccc2c1 (mixture of isomers) [Sm20, (E/Z)-2-hydroxy-6-(2(naphthalen-2-yl)vinyl)benzoic acid] | – | 97.1 | 71.3 | 10.3 ± 4.1 | 11.9 ± 8.5 | – | – | inhibit both DNA and PPI | displayed SOX18-DNA binding inhibiting activity; also recorded: inhibit both DNA and PPI
4 | Cc1c2oc3c(C)ccc(C(=O)N[C@@H]4C(=O)N[C@H](C(C)C)C(=O)N5CCC[C@H]5C(=O)N(C)CC(=O)N(C)[C@@H](C(C)C)C(=O)O[C@@H]4C)c3nc-2c(C(=O)N[C@@H]2C(=O)N[C@H](C(C)C)C(=O)N3CCC[C@H]3C(=O)N(C)CC(=O)N(C)[C@@H](C(C)C)C(=O)O[C@@H]2C)c(N)c1=O [actinomycin D] (I: T[dV]P[Sar][NMeV] / II: T[dV]P[Sar][NMeV]; ester I:1-I:C, II:1-II:C; linker I:N-II:N via Actinocin(9to1)) | – | – | – | – | – | bind to DNA | bind to DNA | – | –
5 | CC[n+]1c(-c2ccccc2)c2cc(N)ccc2c2ccc(N)cc21 [ethidium bromide] | – | – | – | – | – | bind to DNA | bind to DNA | – | –

Reference: patent US20240002326A1, “COMPOUNDS AND USE THEREOF IN METHODS OF TREATMENT” (The University of Queensland, priority 2016, published 2024)
